pIC50: −log10 of the molar value. ≈ marks a conversion by molar mass, not a printed value. Calls of active or inactive are those of the source. The rule behind the calls is not given here.
What was measured:
Acetyl-CoA carboxylase 1 [1] = target: T1, Acetyl-CoA carboxylase 1 (Homo sapiens, UniProt Q13085); assay: Inhibition of recombinant human ACC1 expressed in Sf9 cells using acetyl Co-A as substrate preincubated for 60 mins followed by substrate addition and measured after 30 mins by RapidFire-Mass spectrometry
Acetyl-CoA carboxylase 2 [2] = target: T2, Acetyl-CoA carboxylase 2 (Homo sapiens, UniProt O00763); assay: Inhibition of recombinant human ACC2 expressed in Sf9 cells using acetyl Co-A as substrate preincubated for 60 mins followed by substrate addition and measured after 30 mins by RapidFire-Mass spectrometry
Target sequence in this assay (O00763 whole entry): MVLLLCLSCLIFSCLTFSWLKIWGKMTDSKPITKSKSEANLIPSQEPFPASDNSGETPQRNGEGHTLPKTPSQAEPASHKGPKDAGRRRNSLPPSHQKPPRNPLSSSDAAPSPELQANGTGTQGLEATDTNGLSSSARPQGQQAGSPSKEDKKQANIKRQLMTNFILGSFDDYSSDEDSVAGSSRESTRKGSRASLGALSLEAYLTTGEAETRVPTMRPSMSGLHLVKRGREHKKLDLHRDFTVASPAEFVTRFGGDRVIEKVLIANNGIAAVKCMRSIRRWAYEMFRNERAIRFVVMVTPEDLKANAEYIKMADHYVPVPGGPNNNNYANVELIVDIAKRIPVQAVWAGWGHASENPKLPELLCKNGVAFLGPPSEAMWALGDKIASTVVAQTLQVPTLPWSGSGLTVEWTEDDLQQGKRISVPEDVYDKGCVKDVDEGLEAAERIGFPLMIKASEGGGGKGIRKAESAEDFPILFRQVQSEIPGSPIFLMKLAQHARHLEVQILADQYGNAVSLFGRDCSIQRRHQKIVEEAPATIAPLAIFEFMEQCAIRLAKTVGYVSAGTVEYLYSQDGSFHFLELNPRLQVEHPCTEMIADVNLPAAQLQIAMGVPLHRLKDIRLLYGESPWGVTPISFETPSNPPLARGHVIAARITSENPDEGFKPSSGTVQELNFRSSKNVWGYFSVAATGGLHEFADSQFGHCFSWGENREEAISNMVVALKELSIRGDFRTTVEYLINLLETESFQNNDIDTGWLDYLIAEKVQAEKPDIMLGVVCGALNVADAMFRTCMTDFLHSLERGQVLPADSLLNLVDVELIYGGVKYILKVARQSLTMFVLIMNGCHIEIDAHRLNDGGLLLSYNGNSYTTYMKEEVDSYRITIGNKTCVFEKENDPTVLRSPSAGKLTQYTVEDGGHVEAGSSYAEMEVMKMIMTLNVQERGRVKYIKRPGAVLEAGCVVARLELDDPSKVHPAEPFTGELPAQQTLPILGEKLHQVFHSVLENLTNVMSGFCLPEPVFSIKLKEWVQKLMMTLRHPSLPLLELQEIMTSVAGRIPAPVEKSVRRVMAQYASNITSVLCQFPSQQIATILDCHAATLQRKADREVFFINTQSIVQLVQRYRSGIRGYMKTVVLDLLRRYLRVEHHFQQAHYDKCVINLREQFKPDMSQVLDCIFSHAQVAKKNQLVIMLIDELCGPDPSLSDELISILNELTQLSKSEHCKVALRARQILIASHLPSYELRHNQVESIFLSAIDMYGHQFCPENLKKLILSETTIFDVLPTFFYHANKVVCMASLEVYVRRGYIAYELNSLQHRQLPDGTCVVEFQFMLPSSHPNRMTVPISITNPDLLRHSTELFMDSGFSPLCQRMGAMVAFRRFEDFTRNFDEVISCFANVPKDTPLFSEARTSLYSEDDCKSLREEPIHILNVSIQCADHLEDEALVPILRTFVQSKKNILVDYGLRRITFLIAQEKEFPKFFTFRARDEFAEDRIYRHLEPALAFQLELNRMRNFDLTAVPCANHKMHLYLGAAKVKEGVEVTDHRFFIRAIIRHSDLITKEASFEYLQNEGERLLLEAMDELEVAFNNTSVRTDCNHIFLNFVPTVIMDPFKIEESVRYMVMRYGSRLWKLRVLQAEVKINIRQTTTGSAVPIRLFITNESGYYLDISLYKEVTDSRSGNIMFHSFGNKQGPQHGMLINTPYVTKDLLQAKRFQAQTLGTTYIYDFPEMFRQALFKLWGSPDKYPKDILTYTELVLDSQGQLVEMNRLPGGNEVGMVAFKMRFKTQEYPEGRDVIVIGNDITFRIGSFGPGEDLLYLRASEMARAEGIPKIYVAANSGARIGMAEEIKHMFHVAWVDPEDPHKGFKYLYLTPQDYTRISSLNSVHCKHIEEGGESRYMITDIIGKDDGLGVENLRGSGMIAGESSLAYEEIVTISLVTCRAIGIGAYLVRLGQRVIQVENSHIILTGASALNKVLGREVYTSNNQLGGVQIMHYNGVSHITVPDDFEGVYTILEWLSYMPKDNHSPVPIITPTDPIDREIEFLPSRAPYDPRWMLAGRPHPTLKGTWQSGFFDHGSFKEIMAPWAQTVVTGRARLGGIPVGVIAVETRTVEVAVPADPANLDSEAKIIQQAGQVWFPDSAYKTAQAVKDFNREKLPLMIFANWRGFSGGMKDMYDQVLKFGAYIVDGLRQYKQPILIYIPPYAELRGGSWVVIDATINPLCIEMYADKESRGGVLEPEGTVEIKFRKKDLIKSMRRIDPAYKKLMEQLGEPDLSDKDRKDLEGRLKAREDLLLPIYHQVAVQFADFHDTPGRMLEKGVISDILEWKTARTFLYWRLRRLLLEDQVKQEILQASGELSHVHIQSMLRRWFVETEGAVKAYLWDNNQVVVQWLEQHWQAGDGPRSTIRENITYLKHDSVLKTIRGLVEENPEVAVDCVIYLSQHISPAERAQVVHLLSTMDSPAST

Acetyl-CoA carboxylase 1 [3] = target: T1, Acetyl-CoA carboxylase 1; assay: Inhibition of ACC1 in human HCT116 cells assessed as reduction in [14C]acetate uptake preincubated for 60 mins followed by [14C]acetate addition and measured after 2 hrs by top count scintillation counting method; format: cell-based
Acetyl-CoA carboxylase 1 [4] = target: T1, Acetyl-CoA carboxylase 1; assay: Inhibition of recombinant human ACC1 expressed in Sf9 cells at 10 uM using acetyl Co-A as substrate preincubated for 60 mins followed by substrate addition and measured after 30 mins by RapidFire-Mass spectrometry relative to control
Acetyl-CoA carboxylase 2 [5] = target: T2, Acetyl-CoA carboxylase 2; assay: Inhibition of recombinant human ACC2 expressed in Sf9 cells at 10 uM using acetyl Co-A as substrate preincubated for 60 mins followed by substrate addition and measured after 30 mins by RapidFire-Mass spectrometry relative to control
Target sequence in this assay (O00763 whole entry, looked up): as the sequence (O00763 whole entry) above

[6] = Solubility of the compound in pH 6.8 aqueous buffer by HPLC analysis; format: physicochemical
[7] = Oral bioavailability in ICR mouse at 1 mg/kg administered as cassette dose by LC-MS/MS analysis; format: ADME, organism-based; conditions: in vivo
[8] = AUC (0 to 8 hrs) in ICR mouse at 0.1 mg/kg, iv or 1 mg/kg, po administered as cassette dose by LC-MS/MS analysis; format: ADME, organism-based; conditions: in vivo
Homo sapiens = species on record: Homo sapiens; assay: Selectivity ratio of IC50 for recombinant human ACC2 expressed in Sf9 cells to IC50 for recombinant human ACC1 expressed in Sf9 cells
Mus musculus = assay: In vivo inhibition of ACC1 in BALB/cA Jc1-nu/nu mouse xenografted with human HCT116 cells assessed as suppression of malonyl-CoA synthesis at 100 mg/kg, po administered as single dose measured after 16 hrs by RPLC-MS/MS analysis; format: functional, organism-based

| pIC50 (Acetyl-CoA carboxylase 1 [1]) | pIC50 (Acetyl-CoA carboxylase 2 [2]) | pIC50 (Acetyl-CoA carboxylase 1 [3]) | inhibition (Acetyl-CoA carboxylase 1 [4]) | inhibition (Acetyl-CoA carboxylase 2 [5]) | solubility [6] | bioavailability [7] | AUC(0-t) [8] | Structure (SMILES) | Ratio IC50 (Homo sapiens) | inhibition (Mus musculus) |
| --- | --- | --- | --- | --- | --- | --- | --- | --- | --- | --- |
| 6.68 | 5.66 | 6.31 |  |  |  |  |  | CC(C)n1cc(C(=O)Nc2ccc3[nH]ncc3c2)c2ncc(-c3ccc(N)cc3)cc21 |  |  |
|  |  |  | 45% | 4% |  |  |  | O=C(Nc1ccc2[nH]ncc2c1)c1c[nH]c2cc(-c3ccccc3)cnc12 |  |  |
| 6.09 | 5.40 | 6.37 | 99% | 83% | 60 µg/mL (≈ 163 µM) | 39.3% | 189 ng·h/mL | Cn1cc(C(=O)Nc2ccc3[nH]ncc3c2)c2ncc(-c3ccccc3)cc21 | 5 |  |
|  |  |  | 69% |  |  |  |  | Cn1cc(C(=O)Nc2ccc3[nH]ccc3c2)c2ncc(-c3ccccc3)cc21 |  |  |
|  |  |  | 7% | 6% |  |  |  | CN(C(=O)c1cn(C)c2cc(-c3ccccc3)cnc12)c1ccc2[nH]ncc2c1 |  |  |
| 6.00 | 5.43 | 6.89 |  |  | < 60 µg/mL | 57.7% | 653 ng·h/mL | CCn1cc(C(=O)Nc2ccc3[nH]ncc3c2)c2ncc(-c3ccccc3)cc21 |  |  |
|  |  |  | 26% |  |  |  |  | Cn1cc(C(=O)Nc2ccc3c(cnn3C)c2)c2ncc(-c3ccccc3)cc21 |  |  |
| 6.77 | 5.70 | 6.82 |  |  |  | 63.2% | 647 ng·h/mL | CC(C)n1cc(C(=O)Nc2cc3cn[nH]c3cc2F)c2ncc(-c3ccc(N)cc3)cc21 |  | Active |
|  |  |  | -7% | -8% |  |  |  | O=C(Nc1ccc2[nH]ncc2c1)c1c[nH]c2cc(-c3ccccc3)ccc12 |  |  |
|  |  |  | 51% | 31% |  |  |  | Cn1cc(C(=O)Nc2ccc3[nH]cnc3c2)c2ncc(-c3ccccc3)cc21 |  |  |

| Structure (SMILES) | pIC50 (Acetyl-CoA carboxylase 1 [1]) | pIC50 (Acetyl-CoA carboxylase 2 [2]) | pIC50 (Acetyl-CoA carboxylase 1 [3]) | inhibition (Acetyl-CoA carboxylase 1 [4]) | inhibition (Acetyl-CoA carboxylase 2 [5]) | solubility [6] | bioavailability [7] | AUC(0-t) [8] | Ratio IC50 (Homo sapiens) | inhibition (Mus musculus) |
| --- | --- | --- | --- | --- | --- | --- | --- | --- | --- | --- |
| CC(C)n1cc(C(=O)Nc2ccc3[nH]ncc3c2)c2ncc(-c3ccccc3)cc21 | 5.80 | 5.19 | < 6.00 |  |  | 3200 µg/mL (≈ 8090 µM) | 59.8% | 1700 ng·h/mL |  |  |
